Experimental data published in paper PMC4848466, “Insights into the activation mechanism of class I HDAC complexes by inositol phosphates” (Nature Communications, 2016).
Entries after “also recorded” stand apart in the source; their conditions may differ.

B1: MTA1 residues 162-354 (domain or fragment, UniProt Q13330 162-354, looked up)
chain: ADKGEIRVGNRYQADITDLLKEGEEDGRDQSRLETQVWEAHNPLTDKQIDQFLVVARSVGTFARALDCSSSVRQPSLHMSAAAASRDITLFHAMDTLHKNIYDISKAISALVPQGGPVLCRDEMEEWSASEANLFEEALEKYGKDFTDIQQDFLPWKSLTSIIEYYYMWKTTDRYVQQKRLKAAEAESKLKQV
notes: MTA1, residues 162-354, cloned into pcDNA3 with a FLAG tag and TEV protease cleavage site; The complex was eluted from the FLAG resin with TEV protease; source: HEK293F, co-transfected with HDAC1, purified as the complex (FLAG resin, TEV elution, gel filtration)

What was measured:
[1] = target: T1, HDAC3:SMRT complex (Homo sapiens, UniProt O15379+Q9Y618); experiment: Activation of HDAC3:SMRT deacetylase activity by inositol phosphates (BOC-Lys-AMC assay); assay type: biochemical; conditions: for HDAC3 activation relative to maximal Ins(1,4,5,6)P4-stimulated activity / Kd: BOC-Lys-AMC assay; for HDAC3 activation relative to maximal Ins(1,4,5,6)P4-stimulated activity: titration / maximal activation; for Kd: one-site binding fit of HDAC activity vs inositol phosphate concentration, read-out: Kdapp (apparent Kd from activation titration); for HDAC activity as percentage of maximal Ins(1,4,5,6)P4 activity: compound tested at 200 μM
T1 construct: Full-length HDAC3, and residues 350–480 of SMRT were cloned into pcDNA3 vectors; residues 350–480 of SMRT were cloned into pcDNA3 vectors; FLAG tag with TEV protease cleavage site (cleaved yes); made in house; host or cells: HEK293F cells (co-transfection, pcDNA3)
Method: To understand the stereochemical basis underlying the activation of HDAC3 by inositol phosphates we investigated the ability of a range of inositol phosphates and derivatives to enhance the activity of HDAC3 in deacetylase assays. To achieve this we used an assay based on the complex of HDAC3 with an extended SMRT construct which is stable in the absence of inositol phosphate.
HDAC activity of the protein complex was measured using an HDAC assay with a BOC-Lys-AMC substrate. 50 nM HDAC3:SMRT or 50 nM HDAC1:MTA1 was incubated with 100 μM BOC-Lys-AMC substrate in a final volume of 50 μl buffer A (50 mM Tris pH 7.5, 50 mM NaCl, 5% Glycerol), in a black 96-well plate for 30 min at 37 °C.
To test the ability of inositol phosphates and derivatives to activate the complex, 50 nM HDAC3:SMRT (which had been stripped of its endogenous co-purified inositol phosphate) or 50 nM HDAC1:MTA1 was incubated with inositol phosphate or analogue for 30 min at 37 °C before the HDAC activity was measured. All measurements were performed in triplicate and data analysed using GraphPad Prism (version 6.0, GraphPad Software, Inc).

[2] = target: T2, HDAC3:SMRT (Homo sapiens, UniProt O15379+Q9Y618); experiment: Fluorescence anisotropy displacement of 2-FAM-Ins(1,3,4,5,6)P5; assay type: binding; parameters: Full-length HDAC3, and residues 350–480 of SMRT were cloned into pcDNA3 vectors; residues 350–480 of SMRT were cloned into pcDNA3 vectors; FLAG tag with TEV protease cleavage site (cleaved yes); made in house; host or cells: HEK293F cells (co-transfection, pcDNA3); conditions: fluorescence anisotropy competition
Method: The concentration of protein was determined as that which gave 100% bound in the protein titration experiments. The data were analysed and IC50 values calculated using GraphPad Prism (version 6.0).

[3] = target: HDAC1:MTA1 complex (UniProt Q13547)
[4] = target: T2, HDAC3:SMRT; experiment: Fluorescence anisotropy direct binding of 2-FAM-Ins(1,3,4,5,6)P5; conditions: inhibitor bound at the active site
Method: When required, assays were performed in the presence of HDAC inhibitor (20 mM final concentration). Plates were mixed by shaking for 1 s, and measurements taken using a Victor X5 plate reader (Perkin Elmer) at room temperature with an excitation wavelength of 480 nm and an emission wavelength of 535 nm. Experiments were performed in triplicate and data were analysed using GraphPad Prism (version 6.0), Kd values were calculated by nonlinear curve fitting using a one-site binding (hyperbola) model (Y=Bmax*X/(Kd+X).

[5] = target: T3, HDAC1 (UniProt Q13547 1-482); experiment: crystal structure; HDAC1:MTA1 (co-expressed and co-purified, 5 mg/ml) co-crystallised with H4K16Hx at a 1:2 molar ratio; sitting drop, 20 °C, 0.1 M HEPES pH 7.5, 2 M ammonium sulfate, 5% PEG400; crystals frozen with 225 mM InsP6; 3.3 Å; conditions: both partners purified
T3 construct: Histone deacetylase 1 (HDAC1), full length, cloned into pcDNA3; Only handled as the co-expressed, co-purified complex with MTA1 162-354; also called histone deacetylase 1; source: HEK293F, co-transfected with the MTA1 construct, purified as the complex (FLAG resin, TEV elution, gel filtration)
T3 sequence (Q13547 whole entry): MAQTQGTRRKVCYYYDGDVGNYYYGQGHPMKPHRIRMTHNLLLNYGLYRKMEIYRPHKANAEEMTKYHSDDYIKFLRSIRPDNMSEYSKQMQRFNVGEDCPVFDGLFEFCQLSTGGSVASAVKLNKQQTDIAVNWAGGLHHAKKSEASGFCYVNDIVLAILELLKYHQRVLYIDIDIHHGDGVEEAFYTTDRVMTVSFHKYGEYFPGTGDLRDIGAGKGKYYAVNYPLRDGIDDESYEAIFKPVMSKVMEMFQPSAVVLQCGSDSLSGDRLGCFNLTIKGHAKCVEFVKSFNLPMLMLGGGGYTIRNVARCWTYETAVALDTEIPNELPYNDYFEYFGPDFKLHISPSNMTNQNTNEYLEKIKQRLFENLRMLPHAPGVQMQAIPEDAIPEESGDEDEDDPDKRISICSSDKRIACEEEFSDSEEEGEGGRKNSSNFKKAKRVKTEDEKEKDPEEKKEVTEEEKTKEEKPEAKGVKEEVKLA

T1 sequence (O15379 whole entry, the tested form may be a part): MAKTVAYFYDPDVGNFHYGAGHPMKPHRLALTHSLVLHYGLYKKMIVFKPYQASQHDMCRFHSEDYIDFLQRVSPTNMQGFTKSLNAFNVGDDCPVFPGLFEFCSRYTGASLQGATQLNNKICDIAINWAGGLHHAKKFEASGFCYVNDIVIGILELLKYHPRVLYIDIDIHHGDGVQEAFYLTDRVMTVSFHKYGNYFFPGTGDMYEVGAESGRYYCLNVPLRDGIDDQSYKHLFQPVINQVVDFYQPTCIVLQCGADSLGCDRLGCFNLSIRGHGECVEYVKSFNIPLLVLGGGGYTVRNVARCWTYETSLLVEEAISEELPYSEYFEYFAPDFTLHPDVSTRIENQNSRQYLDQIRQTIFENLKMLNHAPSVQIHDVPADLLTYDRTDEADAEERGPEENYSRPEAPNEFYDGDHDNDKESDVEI
T1 sequence (Q9Y618 350-480): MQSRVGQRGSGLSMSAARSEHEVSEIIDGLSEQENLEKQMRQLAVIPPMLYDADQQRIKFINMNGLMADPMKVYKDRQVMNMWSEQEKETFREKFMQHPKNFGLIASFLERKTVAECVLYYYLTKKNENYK
T2 sequence (O15379 whole entry, the tested form may be a part): as the sequence (O15379 whole entry, the tested form may be a part) above
T2 sequence (Q9Y618 350-480): as the sequence (Q9Y618 350-480) above
HDAC1:MTA1 complex, sequence (Q13547 whole entry, one chain of several): as the sequence (Q13547 whole entry) above

Molecule	HDAC3 activation relative to maximal Ins(1,4,5,6)P4-stimulated activity [1]	Kd [1] [µM]	also measured
O=P(O)(O)O[C@H]1[C@H](O)[C@H](O)[C@H](OP(=O)(O)O)[C@@H](OP(=O)(O)O)[C@@H]1O [Ins(1,4,6)P3]	completely inert		
O=P(O)(O)O[C@H]1[C@H](OP(=O)(O)O)[C@H](O)[C@H](O)[C@@H](O)[C@@H]1OP(=O)(O)O [Ins(1,5,6)P3]	60%	29	
O=P(O)(O)O[C@H]1[C@H](OP(=O)(O)O)[C@@H](OP(=O)(O)O)[C@@H](O)[C@@H](O)[C@@H]1OP(=O)(O)O [Ins(3,4,5,6)P4]		41	
O=P(O)(O)OC1C(O)C(O)C(O)C(OP(=O)(O)O)C1OP(=O)(O)O (stereo not drawn) [Ins(4,5,6)P3]	85%	45	
Nc1ncnc2c1ncn2[C@@H]1O[C@H](CO)[C@@H](O[C@H]2O[C@H](CO)[C@@H](OP(=O)(O)O)[C@H](OP(=O)(O)O)[C@H]2O)[C@H]1OP(=O)(O)O [adenophostin A]			IC50 displacement of 2-FAM-Ins(1,3,4,5,6)P5 [2]: nor competes for inositol phosphate binding; HDAC activity as percentage of maximal Ins(1,4,5,6)P4 activity [1]: no activity; also recorded: neither activates HDAC3; also recorded: completely inert
O=P(O)(O)Oc1ccc(OP(=O)(O)O)c(OP(=O)(O)O)c1OP(=O)(O)O [benzene 1,2,3,4-tetrakisphosphate]			HDAC activity as percentage of maximal Ins(1,4,5,6)P4 activity [1]: fails to substantially activate the complex
H4K16Hx (histone H4 residues 12-18 with hydroxamic acid functionality at K16) (from UniProt P62805 13-19) (peptide)			inhibition of the deacetylase activity of HDAC1:MTA1 (IC50) [3]: 0.336 µM
MS-275			enhancement of the binding of 2-FAM-Ins(1,3,4,5,6)P5 to the allosteric site by inhibitor [4]: threefold enhancement
B1			binding result [5]: binds
